Results published in patent publication US20120213855A1, “DOSAGE FORMS FOR WEAKLY IONIZABLE COMPOUNDS” (CIMA LABS INC., priority 2011, published 2012).

Key:
[1] = In vitro dissolution in 900 mL DI water, USP type 2 apparatus (Example 3); format: physicochemical; settings: 37° C., 50 rpm, 15 mg meloxicam, when introduced to the dissolution medium
Method: Dissolution was performed in 900 mL of DI water. Dissolution studies were conducted in a USP type 2 apparatus (Varian Inc., Cary, N.C.). Paddle speed and bath temperature were set to 50 rpm and 37° C., respectively. Samples (5 mL) were withdrawn at 5, 10, 15, 30, 45, and 60 minutes and analyzed by UV spectroscopic methods at 360 nm (Varian Cary, Australia). Dissolution experiment was performed in duplicates unless otherwise specified.

[2] = In vivo dog study, serum pharmacokinetics by LC/MS/MS (Example 4)
Method: Both formulations were administered orally.
For each formulation 4 or 5 dogs were studied. Prior to administration, the animals were fasted overnight and approximately 2 hours post-dose, the animals had access to regular rations for the remaining portion of the study. The animals were dosed multiple times over the course of the study with at least a two-week recovery period between dosing phases. Each formulation was administered as a single dose, with the intravenous dosages occurring in the cephalic vein.
Blood samples were collected from the cephalic or saphenous veins. The samples were stored at room temperature for about 1 hour or until being processed for serum. The samples were centrifuged at 3200 RPM for 10 minutes at 22-26° C. Serum samples were stored at 4±5° C. until analyzed.
The samples were evaluated using LC/MS/MS.

[3] = In vivo human study, pharmacokinetics in healthy volunteers (Example 7)
Method: The study consisted of a total of eighteen healthy adult volunteers (male and female). Testing was conducted over three phases, with a minimum fourteen day washout period between each phase of the study. Test formulation A and C were randomly dosed during phases 1 and 2, while test formulation B was dosed entirely during phase 3. […] Each formulation was administered as a single dose, with approximately 240 mL of room temperature water.
Twenty-seven blood samples per subject per phase were collected at various time points over the course of 96 hours following dosing. Pharmacokinetic sampling occurred within 90 minutes prior to dosing (0 hour) and after dose administration at 0.5, 1, 1.5, 2, 2.5, 3, 3.5, 4, 4.5, 5, 5.5, 6, 6.5, 7, 7.5, 8, 8.5, 9, 9.5, 10, 12, 16, 24, 48, 72, and 96 hours. The samples were stored at room temperature for about 1 hour or until being processed for serum. The samples were centrifuged at 3000 RPM for 10 minutes at 4° C. (±10° C.). Serum samples were stored at −20±10° C. until analyzed.
The samples were evaluated using a validated bioanalytical method and according to the Bioanalytical Laboratory's Standard Operating Procedures and FDA guidelines.

- meloxicam dissolved in water [1]: 12%
- elimination phase [2]: slow elimination phase
- elimination phase [3]: slow elimination phase
Compound: Cc1cnc(NC(=O)C2=C(O)c3ccccc3S(=O)(=O)N2C)s1 [Meloxicam, 4-hydroxy-2-methyl-N-(5-methyl-2-thiazolyl)-2H-1,2-benzothiazine-3-carboxamide-1,1-dioxide]
